According to patent US9598387B2 (Southern Research Institute, priority 2012, dated 2017):

How the values were obtained:
[1] = molecular target: human D2-long dopamine receptor (Homo sapiens (Human), UniProt P14416); assay: Radioligand binding (125I-IABN competition), D2; settings: HEK cell membranes expressing human D2-long
Description: (§1) The affinities of the target compounds were determined using radioligand binding experiments. […] Competition curves were modeled for a single site. Data from competition dose-response curves were analyzed using Tablecurve program (Jandel). IC50 values were converted to equilibrium dissociation constants (Ki values) using the Cheng and Prusoff correction.

[2] = molecular target: human D3 dopamine receptor (Homo sapiens (Human), UniProt P35462); assay: Radioligand binding (125I-IABN competition), D3; settings: for Ki: 125I-IABN competition, HEK cell membranes expressing human D3; for D2/D3 (D3 selectivity ratio, D2 Ki/D3 Ki): calculated D2 Ki/D3 Ki
human D3 dopamine receptor, sequence (P35462 whole entry): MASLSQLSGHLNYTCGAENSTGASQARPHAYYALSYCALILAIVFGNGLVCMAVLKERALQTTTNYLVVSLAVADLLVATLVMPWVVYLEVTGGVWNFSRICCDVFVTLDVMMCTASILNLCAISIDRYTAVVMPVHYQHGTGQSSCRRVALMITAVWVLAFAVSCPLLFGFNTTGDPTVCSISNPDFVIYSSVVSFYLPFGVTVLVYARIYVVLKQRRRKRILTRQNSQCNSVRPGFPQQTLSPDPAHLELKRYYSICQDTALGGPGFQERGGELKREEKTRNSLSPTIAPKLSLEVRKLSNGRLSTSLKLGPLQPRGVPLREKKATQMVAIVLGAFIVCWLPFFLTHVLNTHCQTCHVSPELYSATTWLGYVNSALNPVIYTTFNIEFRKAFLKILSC
Description: as §1

human D2-long dopamine receptor, sequence (P14416 whole entry): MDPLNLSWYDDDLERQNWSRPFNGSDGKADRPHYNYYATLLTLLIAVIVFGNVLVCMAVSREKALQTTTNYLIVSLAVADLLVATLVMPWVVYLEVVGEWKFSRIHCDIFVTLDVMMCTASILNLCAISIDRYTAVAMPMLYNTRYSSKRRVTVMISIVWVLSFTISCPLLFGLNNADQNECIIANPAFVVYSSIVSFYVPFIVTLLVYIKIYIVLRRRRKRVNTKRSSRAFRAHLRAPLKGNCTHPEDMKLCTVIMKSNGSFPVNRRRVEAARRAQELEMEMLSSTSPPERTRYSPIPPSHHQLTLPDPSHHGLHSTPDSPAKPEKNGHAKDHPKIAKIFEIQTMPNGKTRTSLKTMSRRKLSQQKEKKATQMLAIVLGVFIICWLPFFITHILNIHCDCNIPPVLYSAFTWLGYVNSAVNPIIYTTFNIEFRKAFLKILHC

SMILES	Ki [1] [nM]	Ki [2] [nM]	D2/D3 (D3 selectivity ratio, D2 Ki/D3 Ki) [2]
O=C(NCCCCN1CCN(c2ccnc3cc(Cl)ccc23)CC1)N1CCN(c2ccccc2)CC1 [Compound 12, N-(4-(4-(7-Chloroquinolin-4-yl)piperazin-1-yl)butyl)-4-phenylpiperazine-1-carboxamide]	933 ± 91	26.9 ± 4.9	35
CC(C)(C)c1nc(N2CCN(CCCCNC(=O)N3CCN(C4CC4)CC3c3ccccc3)CC2)cc(C(F)(F)F)n1 (centres unmarked) [Compound 80, N-(4-(4-(2-(tert-Butyl)-6-(trifluoromethyl)pyrimidin-4-yl)piperazin-1-yl)butyl)-4-cyclopropyl-2-phenylpiperazine-1-carboxamide]	863 ± 135	118 ± 20.1	7
CC(C)(C)c1nc(N2CCN(CCCCNC(=O)N3CCN(c4cc(C#N)cc(C(F)(F)F)c4)CC3)CC2)cc(C(F)(F)F)n1 [Compound 61, N-(4-(4-(2-(tert-Butyl)-6-(trifluoromethyl)pyrimidin-4-yl)piperazin-1-yl)butyl)-4-(3-cyano-5-(trifluoromethyl)phenyl)piperazine-1-carboxamide]	896 ± 193	48 ± 10.8	19
O=C(NCCCCN1CCN(c2ccc3ccccc3n2)CC1)C1CCC(c2ccccc2)CC1 (centres unmarked) [Compound 106, 4-Phenyl-N-(4-(4-(quinolin-2-yl)piperazin-1-yl)butyl)cyclohexanecarboxamide]	3090 ± 768	62 ± 12.7	50
CC(C)(C)c1nc(N2CCN(CCCCNC(=O)N3CCc4[nH]c5ccc(C#N)cc5c4C3)CC2)cc(C(F)(F)F)n1 [Compound 54, N-(4-(4-(2-(tert-Butyl)-6-(trifluoromethyl)pyrimidin-4-yl)piperazin-1-yl)butyl)-8-cyano-3,4-dihydro-1H-pyrido[4,3-b]indole-2(5H)-carboxamide]	1050 ± 149	40.3 ± 7.2	26
CC(C)(C)c1nc(N2CCN(CCCCNC(=O)N3CCN(c4cccc(-c5ccccc5)c4)CC3)CC2)cc(C(F)(F)F)n1 [Compound 44, 4-([1,1′-Biphenyl]-3-yl)-N-(4-(4-(2-(tert-butyl)-6-(trifluoromethyl)pyrimidin-4-yl)piperazin-1-yl)butyl)piperazine-1-carboxamide]	1110 ± 104	49.3 ± 11.2	22
Cc1cccc(N2CCN(C(=O)NCCCCN3CCN(c4cc(C(F)(F)F)nc(C(C)(C)C)n4)CC3)CC2)c1 [Compound 22, N-(4-(4-(2-(tert-Butyl)-6-(trifluoromethyl)pyrimidin-4-yl)piperazin-1-yl)butyl)-4-(m-tolyl)piperazine-1-carboxamide]	928 ± 231	24.7 ± 5.4	38
O=C(NCCCCN1CCN(c2ncnc3ccccc23)CC1)c1cn2ccccc2n1 [Compound 127, N-(4-(4-(Quinazolin-4-yl)piperazin-1-yl)butyl)imidazo[1,2-a]pyridine-2-carboxamide]	1130 ± 63.8	253	4
CC(C)(C)c1nc(N2CCN(CCCCNC(=O)N3CCN(c4ccccc4-c4ccccc4)CC3)CC2)cc(C(F)(F)F)n1 [Compound 43, 4-([1,1′-Biphenyl]-2-yl)-N-(4-(4-(2-(tert-butyl)-6-(trifluoromethyl)pyrimidin-4-yl)piperazin-1-yl)butyl)piperazine-1-carboxamide]	1020 ± 75.6	15 ± 3.1	68

More lines, now with the values ahead:

Ki [1] [nM]	Ki [2] [nM]	D2/D3 (D3 selectivity ratio, D2 Ki/D3 Ki) [2]	SMILES
337	35.6 ± 1.4		CC(C)(C)c1nc(N2CCN(CCCCNC(=O)C3CCN(Cc4ccccc4)CC3)CC2)cc(C(F)(F)F)n1 [Compound 109, 1-Benzyl-N-(4-(4-(2-(tert-butyl)-6-(trifluoromethyl)pyrimidin-4-yl)piperazin-1-yl)butyl)piperidine-4-carboxamide]
713 ± 78.3	35.2 ± 8.2	20	CC(C)(C)c1nc(N2CCN(CCCCNC(=O)N3CCC(n4c(=O)[nH]c5ccccc54)CC3)CC2)cc(C(F)(F)F)n1 [Compound 53, N-(4-(4-(2-(tert-Butyl)-6-(trifluoromethyl)pyrimidin-4-yl)piperazin-1-yl)butyl)-4-(2-oxo-2,3-dihydro-1H-benzo[d]imidazol-1-yl)piperidine-1-carboxamide]
303 ± 10.4	14.2 ± 2.9	21	O=C(NCCCCN1CCN(c2cccc(C(F)(F)F)c2)CC1)N1CCN(c2ccccc2)CC1 [Compound 2, 4-Phenyl-N-(4-(4-(3-(trifluoromethyl)phenyl)piperazin-1-yl)butyl)piperazine-1-carboxamide]
621 ± 143	25.1 ± 5.5	25	CC(C)(C)c1nc(N2CCN(CCCCNC(=O)N3CCN(c4ccc(-c5ccccc5)cc4)CC3)CC2)cc(C(F)(F)F)n1 [Compound 45, 4-([1,1′-Biphenyl]-4-yl)-N-(4-(4-(2-(tert-butyl)-6-(trifluoromethyl)pyrimidin-4-yl)piperazin-1-yl)butyl)piperazine-1-carboxamide]
382 ± 91	28.3 ± 5.3	14	Cc1nnc2n1CCN(C(=O)NCCCCN1CCN(c3cc(C(F)(F)F)nc(C(C)(C)C)n3)CC1)C2 [Compound 87, N-(4-(4-(2-(tert-Butyl)-6-(trifluoromethyl)pyrimidin-4-yl)piperazin-1-yl)butyl)-3-methyl-5,6-dihydro-[1,2,4]triazolo[4,3-a]pyrazine-7(8H)-carboxamide]
560 ± 53	84.8 ± 21.3	7	CC(C)(C)c1nc(N2CCN(CCCCNC(=O)N3CCc4[nH]c5ccc(C(F)(F)F)cc5c4C3)CC2)cc(C(F)(F)F)n1 [Compound 93, N-(4-(4-(2-(tert-Butyl)-6-(trifluoromethyl)pyrimidin-4-yl)piperazin-1-yl)butyl)-8-(trifluoromethyl)-3,4-dihydro-1H-pyrido[4,3-b]indole-2(5H)-carboxamide]
861 ± 137	25.2 ± 5.5	34	COc1ccccc1N1CCN(C(=O)NCCCCN2CCN(c3cc(C(F)(F)F)nc(C(C)(C)C)n3)CC2)CC1 [Compound 19, N-(4-(4-(2-(tert-Butyl)-6-(trifluoromethyl)pyrimidin-4-yl)piperazin-1-yl)butyl)-4-(2-methoxyphenyl)piperazine-1-carboxamide]
125 ± 25.3	9.6 ± 2.2	13	CC(C)N1CCN(C(=O)NCCCCN2CCN(c3cc(C(F)(F)F)nc(C(C)(C)C)n3)CC2)CC1 [Compound 66, N-(4-(4-(2-(tert-Butyl)-6-(trifluoromethyl)pyrimidin-4-yl)piperazin-1-yl)butyl)-4-isopropylpiperazine-1-carboxamide]
626 ± 143	73.8 ± 17.5	8	CC(C)(C)c1nc(N2CCN(CCCCNC(=O)N3CCN(C4CC4)CC3Cc3ccccc3)CC2)cc(C(F)(F)F)n1 (centres unmarked) [Compound 67, 2-Benzyl-N-(4-(4-(2-(tert-butyl)-6-(trifluoromethyl)pyrimidin-4-yl)piperazin-1-yl)butyl)-4-cyclopropylpiperazine-1-carboxamide]
